Assay results published in PubChem BioAssay (NCI).
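The compound was tested at five concentrations on cells cultured in 96-well plates, with a 48-hour exposure period. GI50: concentration for 50% inhibition of growth. TGI marks complete inhibition of growth.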

What was measured:
Assay in all cases: NCI-60 cell line screen, 48 h
UACC-62 melanoma = tested on: UACC-62 melanoma
SF-268 CNS = tested on: SF-268 CNS
MDA-MB-231 breast = tested on: MDA-MB-231 breast
NCI/ADR-RES ovarian = tested on: NCI/ADR-RES ovarian
SF-539 CNS = tested on: SF-539 CNS
OVCAR-3 ovarian = tested on: OVCAR-3 ovarian
RXF 393 renal = tested on: RXF 393 renal
PC-3 prostate = tested on: PC-3 prostate
UO-31 renal = tested on: UO-31 renal
A498 renal = tested on: A498 renal
DU-145 prostate = tested on: DU-145 prostate
HS 578T breast = tested on: HS 578T breast
MCF7 breast = tested on: MCF7 breast
RPMI-8226 leukemia = tested on: RPMI-8226 leukemia
KM12 colon = tested on: KM12 colon
SK-OV-3 ovarian = tested on: SK-OV-3 ovarian
ACHN renal = tested on: ACHN renal
HL-60(TB) leukemia = tested on: HL-60(TB) leukemia
U251 CNS = tested on: U251 CNS
M14 melanoma = tested on: M14 melanoma
COLO 205 colon = tested on: COLO 205 colon
SK-MEL-5 melanoma = tested on: SK-MEL-5 melanoma
MDA-MB-435 = tested on: MDA-MB-435
NCI-H460 lung = tested on: NCI-H460 lung
CAKI-1 renal = tested on: CAKI-1 renal
HT29 colon = tested on: HT29 colon
NCI-H23 lung = tested on: NCI-H23 lung
NCI-H226 lung = tested on: NCI-H226 lung
MOLT-4 leukemia = tested on: MOLT-4 leukemia
786-0 renal = tested on: 786-0 renal
SNB-19 CNS = tested on: SNB-19 CNS
OVCAR-8 ovarian = tested on: OVCAR-8 ovarian
SW-620 colon = tested on: SW-620 colon
EKVX NSCLC = tested on: EKVX NSCLC
SK-MEL-28 melanoma = tested on: SK-MEL-28 melanoma
SF-295 CNS = tested on: SF-295 CNS
SR leukemia = tested on: SR leukemia
SN12C renal = tested on: SN12C renal
UACC-257 melanoma = tested on: UACC-257 melanoma
HOP-92 NSCLC = tested on: HOP-92 NSCLC
A549 NSCLC = tested on: A549 NSCLC
SNB-75 CNS = tested on: SNB-75 CNS
SK-MEL-2 melanoma = tested on: SK-MEL-2 melanoma
BT-549 breast = tested on: BT-549 breast
IGROV1 ovarian = tested on: IGROV1 ovarian
HOP-62 NSCLC = tested on: HOP-62 NSCLC
MALME-3M melanoma = tested on: MALME-3M melanoma
T-47D breast = tested on: T-47D breast
HCT-116 colon = tested on: HCT-116 colon
OVCAR-4 ovarian = tested on: OVCAR-4 ovarian
K-562 leukemia = tested on: K-562 leukemia
LOX IMVI melanoma = tested on: LOX IMVI melanoma
OVCAR-5 ovarian = tested on: OVCAR-5 ovarian
HCT-15 colon = tested on: HCT-15 colon
HCC-2998 colon = tested on: HCC-2998 colon
TK-10 renal = tested on: TK-10 renal
CCRF-CEM leukemia = tested on: CCRF-CEM leukemia

In the case of `COc1ccc(-c2cnoc2-c2ccc(OC)cc2O)cc1`, the GI50 (UACC-62 melanoma) is reported as 2.61 µM, the TGI (UACC-62 melanoma) is reported as 20.2 µM and the GI50 (SF-268 CNS) is reported as 6.32 µM. It also gave a TGI (SF-268 CNS) of 42.6 µM, a GI50 (MDA-MB-231 breast) of 3.32 µM and a TGI (MDA-MB-231 breast) of 27.6 µM. For the same compound, the GI50 (NCI/ADR-RES ovarian) was 1.75 µM, the TGI (NCI/ADR-RES ovarian) was 19.1 µM and the GI50 (SF-539 CNS) was 3.66 µM. The TGI (SF-539 CNS) was 16.6 µM, the GI50 (OVCAR-3 ovarian) was 2.32 µM and the TGI (OVCAR-3 ovarian) was 5.76 µM. For the same compound, the GI50 (RXF 393 renal) was 3.4 µM, the TGI (RXF 393 renal) was 11.1 µM and the GI50 (PC-3 prostate) was 4.52 µM. The TGI (PC-3 prostate) was 54.3 µM, the GI50 (UO-31 renal) was 11.6 µM and the TGI (UO-31 renal) was 53.3 µM. It also gave a GI50 (A498 renal) of 1.78 µM, a TGI (A498 renal) of 8.49 µM and a GI50 (DU-145 prostate) of 3.85 µM. It also gave a TGI (DU-145 prostate) of 15.8 µM, a GI50 (HS 578T breast) of 1.9 µM and a TGI (HS 578T breast) of 6.69 µM. The GI50 (MCF7 breast) was 2.85 µM, the TGI (MCF7 breast) was 85.2 µM and the GI50 (RPMI-8226 leukemia) was 4.98 µM. The TGI (RPMI-8226 leukemia) was 67.4 µM, the GI50 (KM12 colon) was 2.66 µM and the TGI (KM12 colon) was 15 µM. For the same compound, the GI50 (SK-OV-3 ovarian) was 4.17 µM, the TGI (SK-OV-3 ovarian) was 24 µM and the GI50 (ACHN renal) was 9.17 µM. For the same compound, the TGI (ACHN renal) was greater than 100 µM, the GI50 (HL-60(TB) leukemia) was 2.93 µM and the TGI (HL-60(TB) leukemia) was 16.8 µM. The GI50 (U251 CNS) was 3.58 µM, the TGI (U251 CNS) was 18.3 µM and the GI50 (M14 melanoma) was 2.69 µM. It also gave a TGI (M14 melanoma) of 15 µM, a GI50 (COLO 205 colon) of 9.5 µM and a TGI (COLO 205 colon) of 30.4 µM. For the same compound, the GI50 (SK-MEL-5 melanoma) was 3.52 µM, the TGI (SK-MEL-5 melanoma) was 14.2 µM and the GI50 (MDA-MB-435) was 0.314 µM. For the same compound, the TGI (MDA-MB-435) was 1.6 µM, the GI50 (NCI-H460 lung) was 3.24 µM and the TGI (NCI-H460 lung) was 12.4 µM. The GI50 (CAKI-1 renal) was 4.31 µM, the TGI (CAKI-1 renal) was greater than 100 µM and the GI50 (HT29 colon) was 3.54 µM. The TGI (HT29 colon) was 15.3 µM, the GI50 (NCI-H23 lung) was 4.31 µM and the TGI (NCI-H23 lung) was 50.3 µM. The GI50 (NCI-H226 lung) was 12.8 µM, the TGI (NCI-H226 lung) was 55.6 µM and the GI50 (MOLT-4 leukemia) was 3.36 µM. The TGI (MOLT-4 leukemia) was 22.9 µM, the GI50 (786-0 renal) was 5.31 µM and the TGI (786-0 renal) was 37.5 µM. The GI50 (SNB-19 CNS) was 5.29 µM, the TGI (SNB-19 CNS) was greater than 100 µM and the GI50 (OVCAR-8 ovarian) was 4.49 µM. The TGI (OVCAR-8 ovarian) was 30.4 µM, the GI50 (SW-620 colon) was 2.05 µM and the TGI (SW-620 colon) was greater than 100 µM. The GI50 (EKVX NSCLC) was 15.5 µM, the TGI (EKVX NSCLC) was greater than 100 µM and the GI50 (SK-MEL-28 melanoma) was 5.42 µM. It also gave a TGI (SK-MEL-28 melanoma) of 60.5 µM, a GI50 (SF-295 CNS) of 2.99 µM and a TGI (SF-295 CNS) of 14.8 µM. The GI50 (SR leukemia) was 0.628 µM, the TGI (SR leukemia) was 13 µM and the GI50 (SN12C renal) was 5 µM. For the same compound, the TGI (SN12C renal) was 41.1 µM, the GI50 (UACC-257 melanoma) was 6.9 µM and the TGI (UACC-257 melanoma) was 41.6 µM. The GI50 (HOP-92 NSCLC) was 2.42 µM, the TGI (HOP-92 NSCLC) was 27.4 µM and the GI50 (A549 NSCLC) was 4.08 µM. For the same compound, the TGI (A549 NSCLC) was 69.3 µM, the GI50 (SNB-75 CNS) was 1.72 µM and the TGI (SNB-75 CNS) was 9.86 µM. For the same compound, the GI50 (SK-MEL-2 melanoma) was 3.33 µM, the TGI (SK-MEL-2 melanoma) was 11.8 µM and the GI50 (BT-549 breast) was 9.73 µM. The TGI (BT-549 breast) was 35.3 µM, the GI50 (IGROV1 ovarian) was 7.54 µM and the TGI (IGROV1 ovarian) was 92.1 µM. The GI50 (HOP-62 NSCLC) was 4.6 µM, the TGI (HOP-62 NSCLC) was 35.7 µM and the GI50 (MALME-3M melanoma) was 14.1 µM. It also gave a TGI (MALME-3M melanoma) of 49.5 µM, a GI50 (T-47D breast) of 8.64 µM and a TGI (T-47D breast) greater than 100 µM. It also gave a GI50 (HCT-116 colon) of 2.82 µM, a TGI (HCT-116 colon) of 16.5 µM and a GI50 (OVCAR-4 ovarian) of 10.5 µM. It also gave a TGI (OVCAR-4 ovarian) greater than 100 µM, a GI50 (K-562 leukemia) of 0.534 µM and a TGI (K-562 leukemia) greater than 100 µM. The GI50 (LOX IMVI melanoma) was 6.9 µM, the TGI (LOX IMVI melanoma) was 26.2 µM and the GI50 (OVCAR-5 ovarian) was 13.5 µM. For the same compound, the TGI (OVCAR-5 ovarian) was greater than 100 µM, the GI50 (HCT-15 colon) was 2.56 µM and the TGI (HCT-15 colon) was greater than 100 µM. The GI50 (HCC-2998 colon) was 5.27 µM, the TGI (HCC-2998 colon) was 29.8 µM and the GI50 (TK-10 renal) was 11.8 µM. The TGI (TK-10 renal) was 47.5 µM, the GI50 (CCRF-CEM leukemia) was 3.09 µM and the TGI (CCRF-CEM leukemia) was greater than 100 µM.
